Where only a bound is given, the exact number is not on record here.

One may read the IC50 as the concentration that gives 50% inhibition.

The target of this assay is T1, PRMT5/MEP50 (Homo sapiens, UniProt O14744).
T1 construct: Flag-PRMT5; 6His-MEP50
T1 sequence (O14744 with tags, fused parts or gaps): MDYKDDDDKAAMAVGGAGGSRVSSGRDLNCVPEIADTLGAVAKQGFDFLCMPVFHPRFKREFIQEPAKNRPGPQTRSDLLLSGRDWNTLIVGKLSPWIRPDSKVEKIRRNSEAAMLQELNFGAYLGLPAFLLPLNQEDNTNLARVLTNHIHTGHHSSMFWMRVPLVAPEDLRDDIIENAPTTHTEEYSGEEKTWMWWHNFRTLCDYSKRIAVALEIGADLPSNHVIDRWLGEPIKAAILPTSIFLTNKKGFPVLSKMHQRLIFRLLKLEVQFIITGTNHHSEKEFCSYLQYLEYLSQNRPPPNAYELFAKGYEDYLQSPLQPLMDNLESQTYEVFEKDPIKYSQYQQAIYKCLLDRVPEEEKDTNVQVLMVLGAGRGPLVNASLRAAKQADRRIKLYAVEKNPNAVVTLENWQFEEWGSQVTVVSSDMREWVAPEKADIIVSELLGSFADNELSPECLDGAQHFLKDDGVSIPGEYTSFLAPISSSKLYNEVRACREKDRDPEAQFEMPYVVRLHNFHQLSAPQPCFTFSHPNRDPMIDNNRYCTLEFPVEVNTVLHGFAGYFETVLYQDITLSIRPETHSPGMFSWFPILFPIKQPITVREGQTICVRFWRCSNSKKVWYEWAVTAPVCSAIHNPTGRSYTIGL
T1 sequence (Q9BQA1 with tags, fused parts or gaps partner): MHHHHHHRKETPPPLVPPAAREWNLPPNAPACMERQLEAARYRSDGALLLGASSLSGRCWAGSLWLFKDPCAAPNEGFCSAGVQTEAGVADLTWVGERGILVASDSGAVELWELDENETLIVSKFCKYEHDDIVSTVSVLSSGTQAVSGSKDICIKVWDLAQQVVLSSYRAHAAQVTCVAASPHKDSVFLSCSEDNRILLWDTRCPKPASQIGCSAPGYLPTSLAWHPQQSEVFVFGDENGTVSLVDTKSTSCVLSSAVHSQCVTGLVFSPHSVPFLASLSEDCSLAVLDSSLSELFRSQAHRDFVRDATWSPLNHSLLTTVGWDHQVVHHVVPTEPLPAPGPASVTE
The assay can be described thus: PRMT5 Biochemical Assay (PRMT5/MEP50 enzyme assay on peptide substrate, 3H-SAM Flashplate). An excerpt:
General Materials. S-adenosylmethionine (SAM), S-adenosylhomocysteine (SAH), bicine, KCl, Tween20, dimethylsulfoxide (DMSO), bovine skin gelatin (BSG), and Tris(2-carboxyethyl)phosphine hydrochloride solution (TCEP) were purchased from Sigma-Aldrich at the highest level of purity possible. ^3H-SAM was purchase from American Radiolabeled Chemicals with a specific activity of 80 Ci/mmol. 384-well streptavidin Flashplates were purchased from PerkinElmer.
Substrates. Peptide representative of human histone H4 residues 1-15 was synthesized with a C-terminal linker-affinity tag motif and a C-terminal amide cap by 21st Century Biochemicals. The peptide was high high-perfomance liquid chromatography (HPLC) purified to greater than 95% purity and confirmed by liquid chromatography mass spectrometry (LC-MS). The sequence was Ac-[…][K-Biot]-amide (SEQ ID NO.:3).
Molecular Biology: Full-length human PRMT5 (NM_006109.3) transcript variant 1 clone was amplified from a fetal brain cDNA library, incorporating flanking 5′ sequence encoding a FLAG tag ([…]) (SEQ ID NO.:4) fused directly to Ala 2 of PRMT5. Full-length human MEP50 (NM_024102) clone was amplified from a human testis cDNA library incorporating a 5′ sequence encoding a 6-histidine tag (MHHHHHH) (SEQ ID NO.:5) fused directly to Arg 2 of MEP50. The amplified genes were sublconed into pENTR/D/TEV (Life Technologies) and subsequently transferred by Gateway™ attL×attR recombination to pDEST8 baculvirus expression vector (Life Technologies).
Protein Expression. Recombinant baculovirus and Baculovirus-Infected Insect Cells (BIIC) were generated according to Bac-to-Bac kit instructions (Life Technologies) and Wasilko, 2006, respectively. Protein over-expression was accomplished by infecting exponentially growing Spodoptera frugiperda (SF9) cell culture at 1.2×10^6cell/ml with a 5000 fold dilution of BIIC stock. Infections were carried out at 27° C. for 72 hours, harvested by centrifugation, and stored at −80° C. for purification.
Protein Purification. […] Flag-PRMT5/6His-MeP50 was eluted with 300 mM Imidazole in the same buffer. The purity of recovered protein was 87%. Reference: Wasilko, D. J. and S. E. Lee: “TIPS: titerless infected-cells preservation and scale-up” Bioprocess J., 5 (2006), pp. 29-32.
General Procedure for PRMT5/MEP50 Enzyme Assays on Peptide Substrates. The assays were all performed in a buffer consisting of 20 mM Bicine (pH=7.6), 1 mM TCEP, 0.005% BSG, and 0.002% Tween20, prepared on the day of use. Compounds in 100% DMSO (1 ul) were spotted into a polypropylene 384-well V-bottom plates (Greiner) using a Platemate Plus outfitted with a 384-channel head (Thermo Scientific). DMSO (1 ul) was added to Columns 11, 12, 23, 24, rows A-H for the maximum signal control and 1 ul of SAH, a known product and inhibitor of PRMT5/MEP50, was added to columns 11, 12, 23, 24, rows I-P for the minimum signal control. A cocktail (40 ul) containing the PRMT5/MEP50 enzyme and the peptide was added by Multidrop Combi (Thermo-Fisher). The compounds were allowed to incubate with PRMT5/MEP50 for 30 min at 25 degrees Celsius, then a cocktail (10 ul) containing ^3H-SAM was added to initiate the reaction (final volume=51 ul). The final concentrations of the components were as follows: PRMT5/MEP50 was 4 nM, ^3H-SAM was 75 nM, peptide was 40 nM, SAH in the minimum signal control wells was 100 uM, and the DMSO concentration was […]. The assays were stopped by the addition of non-radioactive SAM (10 ul) to a final concentration of 600 uM, which dilutes the ^3H-SAM to a level where its incorporation into the peptide substrate is no longer detectable. 50 ul of the reaction in the 384-well polypropylene plate was then transferred to a 384-well Flashplate and the biotinylated peptides were allowed to bind to the streptavidin surface for at least 1 hour before being washed three times with 0.1% Tween20 in a Biotek ELx405 plate washer. […]
`O=C(Nc1cccnc1)c1cccc(OCC(O)CN2CCc3ccccc3C2)c1` (stereo not drawn) [Compound 268]: the IC50 was 1000 to 10000 nM.

For `OC(COCc1ccc(OCc2ccccc2)cc1)CN1CCc2ccccc2C1` (stereo not drawn) [Compound 12], the IC50 was in the range of 1000 to 10000 nM.

As for `OC(COC1CCCC1)CN1CCc2ccccc2C1` (stereo not drawn) [Compound 302], the IC50 lay in the range of 1000 to 10000 nM.

In the case of `CC(C)(C)OC(=O)N1CCC(OCC(O)CN2CCc3ccccc3C2)C1` (stereo not drawn) [Compound 287], the IC50 lay in the range of 1000 to 10000 nM.

With `O=C(Cn1cnc2ccc(-c3cccc(OCC(O)CN4CCc5ccccc5C4)c3)cc21)N1CCCC1` (stereo not drawn) [Compound 263], the IC50 was 101 to 1000 nM.

Regarding `Cn1ncc2cnc(-c3cccc(OCC(O)CN4CCc5ccccc5C4)c3)cc21` (stereo not drawn) [Compound 248, 1-(3,4-dihydroisoquinolin-2(1H)-yl)-3-(3-(1-methyl-1H-pyrazolo[4,3-c]pyridin-6-yl)phenoxy)propan-2-ol], the IC50 lay within 101 to 1000 nM.

As for `Cn1cnc2ccc(-c3cc(NCC(O)CN4CCc5ccccc5C4)ccn3)cc21` (stereo not drawn) [Compound 217], the IC50 lay within 101 to 1000 nM.

For the compound `OC(COCc1cccnc1)CN1CCc2ccccc2C1` (stereo not drawn) [Compound 283], the IC50 lay in the range of 10000 to 40000 nM.

As to `OC(COc1cccc(C2=CCCCC2)c1)CN1CCc2ccccc2C1` (stereo not drawn) [Compound 57], the IC50 fell in the range of 1000 to 10000 nM.

As for `Cn1ccc2ccc(-c3cc(NCC(O)CN4CCc5ccccc5C4)ncn3)cc21` (stereo not drawn) [Compound 237], the IC50 fell in the range of 101 to 1000 nM.

`CC(=O)N1CCC(Nc2cc(CNCC(O)CN3CCc4ccccc4C3)ncn2)CC1` (stereo not drawn) [Compound 312]: the IC50 is more than 10000 nM.

For `OC(COc1cccc(C2CCCCC2)c1)CN1CCc2ccccc2C1` (stereo not drawn) [Compound 52], the IC50 was 1000 to 10000 nM.

Consider `Cn1cc2cc(-c3cccc(OCC(O)CN4CCc5ccccc5C4)c3)ccc2n1` (stereo not drawn) [Compound 115], for which the IC50 lay within 1000 to 10000 nM.

On to `O=C(Nc1cc[nH]n1)c1cccc(OCC(O)CN2CCc3ccccc3C2)c1` (stereo not drawn) [Compound 274], for which the IC50 lay in the range of 1000 to 10000 nM.

Consider `OC(COc1ccccc1-c1ccno1)CN1CCc2ccccc2C1` (stereo not drawn) [Compound 16], for which the IC50 lay within 1000 to 10000 nM.

As to `Oc1ccc(-c2cccc(OCC(O)CN3CCc4ccccc4C3)c2)cc1F` (stereo not drawn) [Compound 70], the IC50 is 1000 to 10000 nM.

In the case of `OC(COc1ccc2c(c1)OCO2)CN1CCc2ccccc2C1` (stereo not drawn) [Compound 285], the IC50 is 1000 to 10000 nM.

`COc1cc(Cl)cc(-c2cccc(OCC(O)CN3CCc4ccccc4C3)c2)c1` (stereo not drawn) [Compound 110]: the IC50 lay in the range of 101 to 1000 nM.

Turning to `OC(COCc1ccc(CN2CCOCC2)cc1)CN1CCc2ccccc2C1` (stereo not drawn) [Compound 46], the IC50 was in the range of 1000 to 10000 nM.

Take `Cn1cnc2ccc(-c3cccc(OCC(O)CN4CCc5ccc(Cl)cc5C4)c3)cc21` (stereo not drawn) [Compound 214]: the IC50 was 1000 to 10000 nM.

Turning to `OC(COCc1ccccn1)CN1CCc2ccccc2C1` (stereo not drawn) [Compound 282], the IC50 lay within 10000 to 40000 nM.

As to `OC(COc1ccccc1N1CCNCC1)CN1CCc2ccccc2C1` (stereo not drawn) [Compound 7], the IC50 was in the range of 10000 to 40000 nM.

In the case of `CNC(=O)c1cccc(-c2cccc(OCC(O)CN3CCc4ccccc4C3)c2)c1` (stereo not drawn) [Compound 186], the IC50 lay in the range of 101 to 1000 nM.

As for `Cn1cc2ccc(-c3cccc(OCC(O)CN4CCc5ccccc5C4)c3)cc2n1` (stereo not drawn) [Compound 114], the IC50 was 101 to 1000 nM.

Take `COc1ccc(-c2cccc(OCC(O)CN3CCc4ccccc4C3)c2)c(C)c1` (stereo not drawn) [Compound 90]: the IC50 fell in the range of 101 to 1000 nM.

With `CCOC(=O)CC1c2ccccc2CCN1CC(O)COc1cccc(-c2ccc3ncn(C)c3c2)c1` (stereo not drawn) [Compound 144], the IC50 fell in the range of 1000 to 10000 nM.

In the case of `OC(COC1CCOCC1)CN1CCc2ccccc2C1` (stereo not drawn) [Compound 310], the half-maximal inhibitory concentration (IC50) fell in the range of 10000 to 40000 nM.

As to `CN(C)c1ncc(-c2cccc(OCC(O)CN3CCc4ccccc4C3)c2)cn1` (stereo not drawn) [Compound 125, 1-(3,4-dihydroisoquinolin-2(1H)-yl)-3-(3-(2-(dimethylamino)pyrimidin-5-yl)phenoxy)propan-2-ol], the IC50 is 101 to 1000 nM.

On to `OC(COc1cccc(-c2cccc3c2oc2ccccc23)c1)CN1CCc2ccccc2C1` (stereo not drawn) [Compound 86, 1-(3-(dibenzo[b,d]furan-4-yl)phenoxy)-3-(3,4-dihydroisoquinolin-2(1H)-yl)propan-2-ol], for which the IC50 fell in the range of 101 to 1000 nM.

As for `OC(COCC1CCCCC1)CN1CCc2ccccc2C1` (stereo not drawn) [Compound 294], the IC50 lay in the range of 1000 to 10000 nM.

For the compound `CN(CC(O)CN1CCc2ccccc2C1)c1cccc(C(=O)NC2CCOCC2)c1` (stereo not drawn) [Compound 99], the IC50 was 10000 to 40000 nM.

As for `CC(=O)N1CC(Nc2cc(CNCC(O)CN3CCc4ccccc4C3)ncn2)C1` (stereo not drawn) [Compound 311], the IC50 was more than 10000 nM.

As for `OC(COc1cccc(-c2ccc3c(c2)OCCO3)c1)CN1CCc2ccccc2C1` (stereo not drawn) [Compound 85, 1-(3-(2,3-dihydrobenzo[b][1,4]dioxin-6-yl)phenoxy)-3-(3,4-dihydroisoquinolin-2(1H)-yl)propan-2-ol], the IC50 fell in the range of 101 to 1000 nM.

On to `OC(COCc1ccccc1)CN1CCc2ccccc2C1` (stereo not drawn) [Compound 308], for which the IC50 lay within 10000 to 40000 nM.

For the compound `O=C1COc2ccc(-c3cccc(OCC(O)CN4CCc5ccccc5C4)c3)cc2N1` (stereo not drawn) [Compound 156, 6-(3-(3-(3,4-dihydroisoquinolin-2(1H)-yl)-2-hydroxypropoxy)phenyl)-2H-benzo[b][1,4]oxazin-3(4H)-one], the IC50 fell in the range of 101 to 1000 nM.

Consider `OC(COc1cccc(-c2cncnc2)c1)CN1CCc2ccccc2C1` (stereo not drawn) [Compound 140], for which the IC50 was 1000 to 10000 nM.

As to `O=C(Cn1ccc2cnc(-c3cccc(OCC(O)CN4CCc5ccccc5C4)c3)nc21)N1CCOCC1` (stereo not drawn) [Compound 222], the IC50 was in the range of 101 to 1000 nM.

For `O=C(c1cncc(-c2cccc(OCC(O)CN3CCc4ccccc4C3)c2)c1)N1CCCC1` (stereo not drawn) [Compound 181], the IC50 lay within 1000 to 10000 nM.

For the compound `Cn1cnc2ccc(-c3cccc(OCC(O)CN4CCc5c(Cl)cccc5C4)c3)cc21` (stereo not drawn) [Compound 215], the IC50 was in the range of 1000 to 10000 nM.

For `OC(COCc1ccncc1)CN1CCc2ccccc2C1` (stereo not drawn) [Compound 284], the IC50 lay in the range of 10000 to 40000 nM.

Take `Cn1cnc2ccc(-c3cccc(NCC(O)CN4CCc5ccccc5C4)n3)cc21` (stereo not drawn) [Compound 117, 1-(3,4-Dihydroisoquinolin-2(1H)-yl)-3-((6-(1-methyl-1H-benzo[d]imidazol-6-yl)pyridin-2-yl)amino)propan-2-ol]: the IC50 lay in the range of 101 to 1000 nM.

As for `N#Cc1ccccc1-c1cccc(OCC(O)CN2CCc3ccccc3C2)c1` (stereo not drawn) [Compound 93], the IC50 fell in the range of 101 to 1000 nM.

Turning to `CC(C)(C)OCc1cccc(-c2cccc(OCC(O)CN3CCc4ccccc4C3)c2)c1` (stereo not drawn) [Compound 150], the IC50 was 101 to 1000 nM.

Regarding `NC(=O)c1cccc(-c2cccc(OCC(O)CN3CCc4ccccc4C3)c2)c1` (stereo not drawn) [Compound 171], the IC50 lay in the range of 101 to 1000 nM.

Turning to `Cn1ncc2ccc(-c3cc(COCC(O)CN4CCc5ccccc5C4)on3)cc21` (stereo not drawn) [Compound 136], the IC50 fell in the range of 101 to 1000 nM.

As to `Cc1ccc(F)c(-c2cccc(OCC(O)CN3CCc4ccccc4C3)c2)c1` (stereo not drawn) [Compound 138], the IC50 lay in the range of 101 to 1000 nM.

Consider `CN(CC(O)CN1CCc2ccccc2C1)c1cccc(CNC2CCCC2)c1` (stereo not drawn) [Compound 53], for which the IC50 was in the range of 101 to 1000 nM.

For the compound `OC(COc1cccc(-c2ccccc2F)c1)CN1CCc2ccccc2C1` (stereo not drawn) [Compound 154], the IC50 lay within 101 to 1000 nM.

On to `OC(COC1CCN(Cc2ccccc2)C1)CN1CCc2ccccc2C1` (stereo not drawn) [Compound 35], for which the IC50 lay within 1000 to 10000 nM.

Consider `CC(=O)c1cccc(-c2cccc(OCC(O)CN3CCc4ccccc4C3)c2)c1` (stereo not drawn) [Compound 67], for which the IC50 was in the range of 101 to 1000 nM.

Regarding `COc1ccc(-c2cccc(OCC(O)CN3CCc4ccccc4C3)c2)cc1` (stereo not drawn) [Compound 75, 1-(3,4-dihydroisoquinolin-2(1H)-yl)-3-((4′-methoxy-[1,1′-biphenyl]-3-yl)oxy)propan-2-ol], the IC50 was 101 to 1000 nM.

These data come from patent US20180298010A1, “PRMT5 INHIBITORS AND USES THEREOF” (Epizyme, Inc., priority 2012, published 2018).
